Measurements published in patent US9434727B2, “Substituted 4-phenylpiperidines, their preparation and use” (THE TRUSTEES OF COLUMBIA UNIVERSITY IN THE CITY OF NEW YORK, priority 2014, dated 2016).
Where a name gives a salt, the structure may show the parent alone.

Experiments:
serum RBP4 = serum RBP4 (Mus musculus (Mouse), UniProt Q00724); assay: Serum RBP4 levels in Abca4−/− mice; assay type: in vivo; conditions: 25 mg/kg for 12 weeks, mice starting at 17 weeks old; present-tense paper example
Procedure: The effectiveness of the compounds listed in Table 1 are tested in wild-type and Abca4−/− mice. The Abca4−/− mouse model manifests accelerated accumulation of lipofuscin in the RPE and is considered a pre-clinical efficacy model for a drug reducing lipofuscin accumulation. Compounds are orally dosed for 3 weeks at 30 mg/kg. There is a reduction in the serum RBP4 level in treated animals. The levels of A2E/isoA2E and other bisretinoids are reduced in treated mice.
Abca4−/− mice have A2E levels in the ˜15-19 pmoles/eye range at 17 weeks old. Mice, starting at 17 weeks old, were treated with 25 mg/kg of Compound 81 for 12 weeks.

RBP4 = RBP4 (Homo sapiens (Human), UniProt P02753); assay: Scintillation proximity (SPA) RBP4 binding assay; conditions: 10 nM 3H-Retinol, 50 nM biotinylated RBP4
Procedure: Scintillation Proximity RBP4 Binding Assay
Untagged human RBP4 purified from urine of tubular proteinuria patients was purchased from Fitzgerald Industries International. It was biotinylated using the EZ-Link Sulfo-NHS-LC-Biotinylation kit from Pierce following the manufacturer's recommendations. Binding experiments were performed in 96-well plates (OptiPlate, PerkinElmer) in a final assay volume of 100 μl per well in SPA buffer (IX PBS, pH 7.4, 1 mM EDTA, 0.1% BSA, 0.5% CHAPS). The reaction mix contained 10 nM ^3H-Retinol (48.7 Ci/mmol; PerkinElmer), 0.3 mg/well Streptavidin-PVT beads, 50 nM biotinylated RBP4 and a test compound. Nonspecific binding was determined in the presence of 20 μM of unlabeled retinol. The reaction mix was assembled in the dark under dim red light. The plates were sealed with clear tape (TopSeal-A: 96-well microplate, PerkinElmer), wrapped in the aluminum foil, and allowed to equilibrate 6 hours at room temperature followed by overnight incubation at +4° C. Radiocounts were measured using a TopCount NXT counter (Packard Instrument Company).

RBP4-TTR interaction = RBP4-TTR interaction (Homo sapiens (Human), UniProt P02753); assay: TR-FRET (HTRF) assay for retinol-induced RBP4-TTR interaction; assay type: biochemical; conditions: in the presence of 1 μM retinol; read-out: HTRF assay for antagonists of RBP4-TTR interaction: IC50
From the text: TR-FRET assay for retinol-induced RBP4-TTR interaction Binding of a desired RBP4 antagonist displaces retinol and induces hindrance for RBP4-TTR interaction resulting in the decreased FRET signal (FIG. 7). Bacterially expressed MBP-RBP4 and untagged TTR were used in this assay. […] Following cell lysis, recombinant RBP4 was purified from the soluble fraction using the ACTA FPLC system (GE Healthcare) equipped with the 5-ml the MBP Trap HP column. Human untagged TTR was purchased from Calbiochem. Untagged TTR was labeled directly with Eu^3+ Cryptate-NHS using the HTRF Cryptate Labeling kit from CisBio following the manufacturer's recommendations. HTRF assay was performed in white low volume 384 well plates (Greiner-Bio) in a final assay volume of 16 μl per well. The reaction buffer contained 10 mM Tris-HCl pH 7.5, 1 mM DTT, 0.05% NP-40, 0.05% Prionex, 6% glycerol, and 400 mM KF. […] Titration of test compounds in this assay was conducted in the presence of 1 μM retinol. All reactions were assembled in the dark under dim red light and incubated overnight at +4° C. wrapped in aluminum foil. TR-FRET signal was measured in the SpectraMax M5e Multimode Plate Reader (Molecular Device). […] The TR-FRET signal was expressed as the ratio of fluorescence intensity: Flu665/Flu620×10,000.

| Compound | serum RBP4 level (serum RBP4) | IC50 (RBP4) [nM] | IC50 (RBP4-TTR interaction) [nM] |
| --- | --- | --- | --- |
| O=C(c1n[nH]c2c1CNC2)N1CCC(c2ccc(F)c(F)c2C(F)(F)F)CC1 [Compound 38, (4-(3,4-Difluoro-2-(trifluoromethyl)phenyl)piperidin-1-yl)(1,4,5,6-tetrahydropyrrolo[3,4-c]pyrazol-3-yl)methanone Hydrochloride] | significant serum RBP4 reduction | 26.9 | 200 |
| O=C(c1n[nH]c2c1CNCC2)N1CCC(c2cccc(F)c2Cl)CC1 [Compound 42, (4-(2-Chloro-3-fluorophenyl)piperidin-1-yl)(4,5,6,7-tetrahydro-1Hpyrazolo[4,3-c]pyridin-3-yl) methanone Hydrochloride] | significant serum RBP4 reduction | 424 | 791 |
| O=C(c1n[nH]c2c1CCNC2)N1CCC(c2cccc(F)c2C(F)(F)F)CC1 [Compound 30, (4-(3-Fluoro-2-(trifluoromethyl)phenyl)piperidin-1-yl)(4,5,6,7-tetrahydro-1H-pyrazolo[3,4-c]pyridin-3-yl)methanone Hydrochloride] | significant serum RBP4 reduction | 13.3 | 44.1 |
| O=C(c1n[nH]c2c1CN(CC(F)(F)F)CC2)N1CCC(c2cccc(F)c2C(F)(F)F)CC1 [Compound 71, (4-(3-Fluoro-2-(trifluoromethyl)phenyl)piperidin-1-yl)(5-(2,2,2-trifluoroethyl)-4,5,6,7-tetrahydro-1H-pyrazolo[4,3-c]pyridin-3-yl)methanone] | – | 17.1 | 52.6 |
| COC(=O)N1CCc2c(C(=O)N3CCC(c4cc(F)cc(F)c4C(F)(F)F)CC3)n[nH]c2C1 [Compound 130, Methyl 3-(4-(3,5-difluoro-2-(trifluoromethyl)phenyl)piperidine-1-carbonyl)-1,4,5,7-tetrahydro-6H-pyrazolo[3,4-c]pyridine-6-carboxylate] | – | 12.8 | 14.9 |
| N#Cc1ccc2nnc(C(=O)N3CCC(c4c(F)cccc4C(F)(F)F)CC3)n2c1 [Compound 157, 3-(4-(2-fluoro-6-(trifluoromethyl)phenyl)piperidine-1-carbonyl)-[1,2,4]triazolo[4,3-a]pyridine-6-carbonitrile] | – | 5.84 | 92 |
| O=C(c1n[nH]c2c1CN(CCC(F)(F)F)CC2)N1CCC(c2ccc(F)c(F)c2C(F)(F)F)CC1 [Compound 93, (4-(3,4-difluoro-2-(trifluoromethyl)phenyl)piperidin-1-yl)(5-(3,3,3-trifluoropropyl)-4,5,6,7-tetrahydro-1H-pyrazolo[4,3-c]pyridin-3-yl)methanone] | – | 8 | 33.6 |
| CC(C)CC(=O)N1CCc2c(C(=O)N3CCC(c4ccc(F)c(F)c4C(F)(F)F)CC3)n[nH]c2C1 [Compound 123, 1-(3-(4-(3,4-Difluoro-2-(trifluoromethyl)phenyl)piperidine-1-carbonyl)-1,4,5,7-tetrahydro-6H-pyrazolo[3,4-c]pyridin-6-yl)-3-methylbutan-1-one] | – | 15.1 | 52.2 |
| O=C(c1n[nH]c2c1CN(CCC(F)(F)F)CC2)N1CCC(c2cccc(F)c2Cl)CC1 [Compound 167, (4-(2-Chloro-3-fluorophenyl)piperidin-1-yl)(5-(3,3,3-trifluoropropyl)-4,5,6,7-tetrahydro-1H-pyrazolo[4,3-c]pyridin-3-yl)methanone] | – | 11.7 | 48.8 |
| O=C(c1n[nH]c2c1CN(C1COC1)CC2)N1CCC(c2ccc(F)c(F)c2C(F)(F)F)CC1 [Compound 89, (4-(3,4-difluoro-2-(trifluoromethyl)phenyl)piperidin-1-yl)(5-(oxetan-3-yl)-4,5,6,7-tetrahydro-1H-pyrazolo[4,3-c]pyridin-3-yl)methanone] | – | 8.84 | 33 |
| O=C(c1n[nH]c2c1CCN(CCC(F)(F)F)C2)N1CCC(c2cccc(F)c2C(F)(F)F)CC1 [Compound 76, (4-(3-Fluoro-2-(trifluoromethyl)phenyl)piperidin-1-yl)(6-(3,3,3-trifluoropropyl)-4,5,6,7-tetrahydro-1H-pyrazolo[3,4-c]pyridin-3-yl)methanone] | – | 7.4 | 19.7 |
| N#Cc1ccc2nnc(C(=O)N3CCC(c4cc(F)ccc4Cl)CC3)n2c1 [Compound 145, 3-(4-(2-Chloro-5-fluorophenyl)piperidine-1-carbonyl)-[1,2,4]triazolo[4,3-a]pyridine-6-carbonitrile] | – | 7.57 | 67 |
| CC(C)CC(=O)N1Cc2[nH]nc(C(=O)N3CCC(c4ccc(F)c(F)c4C(F)(F)F)CC3)c2C1 [Compound 86, 1-(3-(4-(3,4-difluoro-2-(trifluoromethyl)phenyl)piperidine-1-carbonyl)pyrrolo[3,4-c]pyrazol-5(1H, 4H, 6H)-yl)-3-methylbutan-1-one] | – | 19.3 | 27.8 |
| O=C(c1n[nH]c2c1CCN(CCC(F)(F)F)C2)N1CCC(c2ccc(F)c(F)c2C(F)(F)F)CC1 [Compound 119, (4-(3,4-Difluoro-2(trifluoromethyl)phenyl)piperidin-1-yl)(6-(3,3,3-trifluoropropyl)-4,5,6,7-tetrahydro-1H-pyrazolo[3,4-c]pyridin-3-yl)methanone] | – | 10.7 | 39.4 |
| N#CN1Cc2[nH]nc(C(=O)N3CCC(c4ccc(F)c(F)c4C(F)(F)F)CC3)c2C1 [Compound 110, 3-(4-(3,4-difluoro-2-(trifluoromethyl)phenyl)piperidine-1-carbonyl)-4,6-dihydropyrrolo[3,4-c]pyrazole-5(1H)-carbonitrile] | – | 15.6 | 15.4 |
| N#CN1CCc2[nH]nc(C(=O)N3CCC(c4ccc(F)c(F)c4C(F)(F)F)CC3)c2C1 [Compound 95, 3-(4-(3,4-difluoro-2-(trifluoromethyl)phenyl)piperidine-1-carbonyl)-6,7-dihydro-1H-pyrazolo[4,3-c]pyridine-5(4H)-carbonitrile] | – | 7.78 | 27.8 |
| CC(=O)N1CCc2c(C(=O)N3CCC(c4ccc(F)cc4C(F)(F)F)CC3)n[nH]c2C1 [Compound 158, 1-(3-(4-(4-fluoro-2-(trifluoromethyl)phenyl)piperidine-1-carbonyl)-4,5-dihydro-1H-pyrazolo[3,4-c]pyridin-6(7H)-yl)ethanone] | – | 8.63 | 36.8 |
| COCCN1Cc2[nH]nc(C(=O)N3CCC(c4ccc(F)c(F)c4C(F)(F)F)CC3)c2C1 [Compound 109, (4-(3,4-difluoro-2(trifluoromethyl)phenyl)piperidin-1-yl)(5-(2-methoxyethyl)-1,4,5,6-tetrahydropyrrolo[3,4-c]pyrazol-3-yl)methanone] | – | 14.9 | 41.9 |
| O=C(c1n[nH]c2c1CCN(CC1CC1)C2)N1CCC(c2ccc(F)c(F)c2C(F)(F)F)CC1 [Compound 118, (6-(Cyclopropylmethyl)-4,5,6,7-tetrahydro-1Hpyrazolo[3,4-c]pyridin-3-yl)(4-(3,4-difluoro-2-(trifluoromethyl)phenyl)piperidin-1-yl)methanone] | – | 9.39 | 14.2 |
| COC(=O)N1CCc2c(C(=O)N3CCC(c4ccc(F)c(F)c4C(F)(F)F)CC3)n[nH]c2C1 [Compound 116, Methyl 3-(4-(3,4-difluoro-2-(trifluoromethyl)phenyl)piperidine-1-carbonyl)-1,4,5,7-tetrahydro-6H-pyrazolo[3,4-c]pyridine-6-carboxylate] | – | 11.4 | 23.7 |
| O=C(c1n[nH]c2c1CN(CC1CC1)CC2)N1CCC(c2cccc(F)c2Cl)CC1 [Compound 164, (4-(2-Chloro-3-fluorophenyl)piperidin-1-yl)(5-(cyclopropylmethyl)-4,5,6,7-tetrahydro-1H-pyrazolo[4,3-c]pyridin-3-yl)methanone] | – | 13.6 | 75 |
